Structures can show the parent of a compound that is named as a salt.
These molecules were tested on HEK293T cells. Conditions: 48 h, multiple concentrations.

Structure (SMILES)	impact on cell viability
NC(CO)C(=O)NNCc1ccc(O)c(O)c1O (stereo not drawn) [benserazide, reference compound]	without significant impact on cell viability
O=C(O[C@@H]1Cc2c(O)cc(O)cc2O[C@@H]1c1cc(O)c(O)c(O)c1)c1cc(O)c(O)c(O)c1 [epigallocatechin gallate]	without significant impact on cell viability
c1ccc2c(c1)OCC(C1=NCCN1)O2 (stereo not drawn) [idazoxan, reference compound]	without significant impact on cell viability
COc1c(-c2coc3cc4c(cc3c2=O)CC(O)C(C)(C)O4)ccc2c1C=CC(C)(C)O2 (stereo not drawn) [mundulone]	without significant impact on cell viability
C=C1C(=O)O[C@H]2[C@H]1CC/C(C)=C/CC[C@@]1(C)O[C@@H]21 [parthenolide]	without significant impact on cell viability

Each molecule was assayed on SARS-CoV-2 (USA-WA1/2020). Conditions: not given.
Format: cell-based

Structure (SMILES)	reduction of the number of infected cells compared to vehicle
c1ccc2c(c1)OCC(C1=NCCN1)O2 (stereo not drawn) [idazoxan hydrochloride, reference compound]	more than 90%

Reference: article PMC9603010 (ACS Bio & Med Chem Au, 2022)
